Source: patent publication US12296018B2, “Albumin binding peptide-drug (AlBiPeD) conjugates and methods of making and using same” (priority 2018, dated 2025)
Values joined by “and” are separate entries in the source; they are usually repeats but may differ in a detail not shown here. Identical values can stand only once.

How the values were obtained:
[1] = system: C26 colon carcinoma tumors; assay: In vivo tumor regression, syngeneic C26 model; parameters: species or system BALB/c mice; details: 20 mg Dox Equiv.kg^−1 BW
Method: (§1) In vivo tumor regression For in vivo tumor implantation, C26 cells at 5×10^5 cells in 30 μL Minimum Essential Medium (MEM) (Invitrogen, Carlsbad, CA) and MIA PaCa-2 cells at 2×10^6 cells in 50 μL 10:90 v/v MEM: Matrigel matrix (Corning Inc, Corning, New York) were inoculated in the right flank of normal and athymic nude BALB/c mice, respectively. Tumor cells were allowed to grow until the tumor volume, calculated as π/6×length×width^2, reached 75-100 mm^3 for C26 tumors and 100-125 mm^3 for MIA PaCa-2 tumors. Tumor bearing mice were then treated with ABD-Dox at 10 and 20 mg Dox Equiv.kg^−1 BW, AlDox at 20 mg Dox Equiv.kg^−1 BW, and free Dox at 10 mgkg^−1 BW. Tumor volumes and body weights were monitored for 100 days after treatment and mice displaying excessive tumor volume (>[…]), body weight loss (>15%), or ill health were euthanized. Tumor growth and survival data were analyzed by GraphPad Prism software. Survival curves were generated with the Kaplan-Meier method and compared with the log-rank (Mantel-Cox) test. Tumor growth data were compared with a paired one-way ANOVA followed by Tukey-Kramer (Tukey's) post-hoc test. P<0.05 was considered as statistically significant.
(§2) For in vivo tumor regression studies, a single dose of ABD-Dox was injected via tail vein at 10 mg Dox Equiv.kg^−1 BW (MTD of free Dox) and 20 mg Dox Equiv.kg^−1 BW (MTD of ABD-Dox) in separate cohorts of BALB/c mice with s.c. C26 tumors or nude mice with s.c. MIA Paca-2 tumors. Free Dox was injected at its MTD of 10 mgkg-1 BW, and AlDox was injected at 20 mg Dox Equiv.kg^−1 BW, a dose that was reported to be safe in previous studies. All animals were injected when the tumors were 75-100 mm; in size for C26 tumors and 100-125 mm^3 for MIA PaCa-2 tumors.

[2] = system: MIA PaCa-2 pancreatic tumor xenografts; assay: In vivo tumor regression, MIA PaCa-2 xenograft model; parameters: species or system nude BALB/c mice
Method: as §1, §2

Aqueous solubility = assay type: physicochemical
Method: To remove the ELP160 tag, the KEKE-ELP160-srt-ABD-Dox conjugate was buffer exchanged into sortase reaction buffer, and was reacted with (His)6-sortase A-ELP40 in the presence of a 50 fold molar excess of triglycine (FIG. 2A). The efficiency of the sortase reaction, defined as the percent conversion of ELP-ABD-Dox substrate to ABD-Dox, was determined by size exclusion HPLC and was calculated to be ≥85% (FIG. 3A). The ABD-Dox product was then separated from (His)6-sortase A-ELP40, the cleaved KEKE-ELP160 tag, and unreacted KEKE-ELP160-srt-ABD-Dox in the sortase reaction solution by preparative size exclusion chromatography (SEC). The number of Dox molecules conjugated per ABD (Dox/ABD molar ratio) was measured before the sortase reaction by dissolving the lyophilized KEKE-ELP160-srt-ABD-Dox conjugate in PBS and calculating the moles of KEKE-ELP160-srt-ABD-Dox and Dox gravimetrically and spectrophotometrically at 488 nm, respectively. 3-4 Dox molecules were attached to each KEKE-ELP160-srt-ABD-(CGG)8. However, following removing the ELP160 tag, the resulting ABD-Dox conjugate was too hydrophobic and insoluble in pH 7.4 PBS because of the high number of conjugated Dox molecules. […] Formulation of AlDox in acidic pH, however, is undesirable as it can trigger the premature, in vitro degradation of the hydrazone bond between Dox and EMCH, converting AlDox back to free Dox.

[3] = system: C26 murine colon carcinoma cells; assay: In vitro cytotoxicity (MTS, 72 h) C26; assay type: cell-based; details: 72 h incubation, Dox Equiv. concentration
Method: (§3) In vitro cytotoxicity C26 murine colon carcinoma cells and three different pancreatic cancer cell lines, BxPC-3, AsPC-1, and MIA PaCa-2, were used to study the in vitro cytotoxicity of ABD-DOX and Dox. Cells were cultured and grown as monolayers at 37° C. with C02 in a humidified incubator and were passaged at ˜80% confluency using 0.05% trypsin-EDTA (Invitrogen, Carlsbad, CA). C26, BxPC-3, AsPC-1, and MIA PaCa-2 cells were seeded in 96-well plates (5,000 cells/well) and incubated overnight. Three-fold serial dilutions of drug were then added to the wells in triplicate and also to control wells (media with no cells) to correct for the background Dox absorbance. After 72 h treatment, 20 μL MTS reagent was added to each well and was incubated for 3 h at 37° C., and the absorbance at 490 nm was measured using a Victor3 plate reader (Perkin Elmer, Boston, MA). Cell viability (%) was defined as the percentage of the absorbance of the drug-treated cells relative to buffer-treated cells and IC50 values were determined using logistic non-linear regression analysis with GraphPad Prism software. The IC50 was defined as the Dox Equiv. concentration of formulations resulting in 50% growth inhibition compared with a negative control, buffer-treated cells.

MIA PaCa-2 cells = assay: In vitro cytotoxicity (MTS, 72 h) MIA PaCa-2; assay type: cell-based, human; details: 72 h incubation, Dox Equiv. concentration
Method: as §3

[4] = system: AsPC-1 pancreatic cancer cells; assay: In vitro cytotoxicity (MTS, 72 h) AsPC-1; assay type: cell-based, human; details: 72 h incubation, Dox Equiv. concentration
Method: as §3

[5] = system: BxPC-3 pancreatic cancer cells; assay: In vitro cytotoxicity (MTS, 72 h) BxPC-3; assay type: cell-based, human; details: 72 h incubation, Dox Equiv. concentration
Method: as §3

[6] = Intravenous pharmacokinetics in healthy BALB/c mice
Method: Pharmacokinetics and biodistribution Pharmacokinetics and biodistribution experiments were performed to study the concentration of ABD-Dox in blood and tissues over time following intravenous (i.v.) administration. For the pharmacokinetic study, ABD-Dox and Dox in PBS and AlDox in 10 mM sodium phosphate, 5% D-(+)-glucose, pH 5.8 were injected at 5 mg Dox Equiv. per kg of body weight (BW) into healthy BALB/c mice. 10 μL blood samples were collected at 40 s, 15 min and 30 min, and 2, 4, 8, 24, 48, 72 and 96 h post injection and were diluted into heparinized PBS (1 kUmL^−1), and centrifuged at 4,000 rcf, 10 min, 4° C. to collect the plasma. 10 μL of the plasma samples were then diluted in 490 μL of acidified isopropanol (0.075 M HCl, 10% water) and incubated overnight at 4° C. For the biodistribution study, ABD-Dox and Dox in PBS were injected at 5 mg Dox Equiv.kg^−1 BW into C26 tumor-bearing BALB/c mice. At 2 h, 24 h, and 72 h post-injection, mice were sacrificed and tumor, heart, lung, liver, spleen, kidney and muscle tissues were dissected, weighed, homogenized in acidified isopropanol using a Mini-Beadbeater (Biospec, Bartlesville, OK) with 2 mm diameter zirconia beads for 1-2 min, and were incubated overnight at 4° C. Following overnight incubation in acidified isopropanol, plasma and tissue samples were centrifuged at 16,000 rcf, 4° C. for 10 min and the supernatants were loaded onto black 96-well plates in duplicate and the Dox fluorescence was measured using on a Victor3 microplate reader (Perkin Elmer, Waltham, MA) with fluorescence excitation at 485 nm and emission at 590 nm. Tissues were also dissected from three untreated mice, processed in the same manner, serially diluted, and loaded on the plates to prepare a standard curve of fluorescence intensity versus the weight for each tissue from which the background tissue fluorescence was calculated and subtracted for each sample. Serial dilution of free Dox in acidified isopropanol was used as standard to quantify the Dox concentration as […] per liter of plasma (μM) and as the percent of the injected dose per gram (% ID g^−1) in the tumor and other tissues. Plasma concentrations of Dox Equiv. of ABD-Dox versus time were fit to a two-compartment model using SAAM II software (SAAM Institute, Seattle, WA) and the elimination half-life and the area-under-curve were computed. The tissue concentration of Dox. Equiv. of ABD-Dox and free Dox at each time point were compared in GraphPad Prism software (GraphPad, San Diego, CA) by Student's t-test with P<0.05 considered statistically significant.

[7] = Tissue biodistribution in C26 tumor-bearing BALB/c mice; assay type: in vivo
Description: The tissue concentration of Dox.

[8] = Dose-escalation study, maximum tolerated dose; assay type: in vivo, BALB/c mice; details: i.v., healthy BALB/c mice, two weeks; no mortality or body weight loss greater than 15%
Method: With these encouraging biodistribution results in hand, tumor regression in vivo by ABD-Dox was investigated. The maximum tolerated dose (MTD) of ABD-Dox was established in healthy mice. A range of doses of ABD-Dox were injected into healthy BALB/c mice, and body weight loss and mortality of the mice were monitored over a two-week period to assess systemic toxicity. […] Using these criteria, the MTD was determined to be 20 mg Dox Equiv.kg^−1 for ABD-Dox (FIG. 7) and 10 mgkg^−1 BW MTD of free Dox (FIG. 8).

| Structure (SMILES) | eradication of C26 tumors [1] | mice that did not survive over the 100-day course of study [1] | recurrence of the primary tumor [1] | mice showing tumor disappearance ([2]; by day 15 after treatment, 20 mg Dox Equiv.kg^−1 BW) | tumor recurrence in tumor-eradicated mice ([2]; by day 50, 20 mg Dox Equiv.kg^−1 BW) | concentration at which acidic pH is required for solubility in aqueous solutions (Aqueous solubility) | solubility (Aqueous solubility; physiological pH) | IC50 [3] | IC50 (MIA PaCa-2 cells) | IC50 [4] | IC50 [5] | concentration in blood relative to initial concentration ([6]; 15 min after i.v. injection) | in vivo elimination half-life ([6]; i.v., 5 mg Dox Equiv. per kg BW) | concentration of Dox equivalent in tumor ([7]; 2 h after administration) | minimum tumor accumulation ([7]; over 72 h) | maximum tolerated dose (MTD) [8] |
| --- | --- | --- | --- | --- | --- | --- | --- | --- | --- | --- | --- | --- | --- | --- | --- | --- |
| COc1cccc2c1C(=O)c1c(O)c3c(c(O)c1C2=O)C[C@@](O)(/C(CO)=N/NC(=O)CCCCCN1C(=O)C=CC1=O)C[C@@H]3O[C@H]1C[C@H](N)[C@H](O)[C@H](C)O1 [AlDox, Aldoxorubicin, reference compound] | incomplete eradication | 25% | without recurrence of the primary tumor in any mice | 50% | all | ≥ 0.5 mg Dox Equiv.mL^−1 | poor solubility |  |  |  |  |  |  |  |  |  |
| COc1cccc2c1C(=O)c1c(O)c3c(c(O)c1C2=O)C[C@@](O)(C(=O)CO)C[C@@H]3O[C@H]1C[C@H](N)[C@H](O)[C@H](C)O1 [free Dox, Doxorubicin, reference compound] |  |  |  |  |  |  |  | 500 nM and 510 nM | 40 nM | 2500 nM | 400 nM | less than 2% | on the order of minutes | 1.6 % ID.g^−1 | 0.07 % ID.g^−1 | 10 mgkg^−1 BW |
